System: Salmonella
Experiment: Salmonella positive samples, simulated USDA HACCP detection (Example 6)
Assay type: cell-based, Salmonella enteritidis
Settings: for Salmonella Positive Samples (Number per 51): birds inoculated with Salmonella prior to chilling
Procedure: The objective of this study was to determine the effect of Clorox® bleach and 1,3-dibromo-5,5-dimethylhydantoin (DBDMH) on individual carcass bacteria field strains after 1.5 hour in a chill tank solution and spoilage 20-day shelf life longevity (caused by bacteria contamination) in a Graded Level Study Model. After normal processing of 56-day-old birds, carcasses were immersed first in a warm bath containing 10^4 CFU's per mL Escherichia coli, 10^4 CFU's per mL Salmonella enteritidis, 10^4 CFU's per mL Pseudomonas aeruginosa, 10^4 CFU's per mL Campylobacter jejuni, and 10^4 CFU's per mL spoilage bacteria each from two strains (Listeria monocytogenes and Shigella sonnei). Carcasses were then immersed in a chill tank “soup”, containing normal organic fluids (blood, fat, skin, and meat particles) and containing various disinfectants (termed test materials). These tests were conducted at pH 8 (adjusted by trisodium phosphate). Skin pigmentation (Minolta Color Meter L value or Lightness, a value or redness and b value or yellowness) was determined before and after processing. Post-chilling skin bacteria of various strains were determined over a 20-day period. […] After salmonella infection in chill tanks, USDA HACCP salmonella detection was simulated and reported.
A DBDMH stock solution and DBDMH test solutions of the concentrations specified in Table 33, a bacteria stock solution, and a “chicken soup” were prepared as in Example 3. In addition, the bacterial broth treatments, the whole bird wash sampling procedure, and the methodologies used for quantitative or qualitative determinations for bacterial organisms were conducted as in Example 3.
The trial events and experimental design used in this group of tests were the same as in Example 5 with the following exceptions: • a) The temperature during the 20-day period of storage in the refrigerator was […]. • b) Observations of the degree of “bloating” (defined as water or air additions under the skin area considered objectionable) were conducted on all processed birds. • c) On each of sampling days 0, 2, 4, 6, 8, 10, 12, 14, 16, 18, and 20, ten carcasses from each treatment were analyzed by removing 23.8 cm^2 of skin from the breast right up to the neck using a template and a sterile scalpel. Each skin sample was placed in a bag with 15 mL Butterfield's Phosphate Buffer Solution (BPBS) added and treated in a Stomacher bag for 60 seconds. A 10-fold dilution series of the mixture was made in BPBS and two parallel samples of […] each were spread on the appropriate plate count agar for determination of the total viable numbers. The plates were incubated at 35° C. for 24 hours. Mean values were calculated from the two determinations of the three samples taken from each combination of chilling and storage. Bacterial numbers were reported as pooled or averaged log10 colony-forming units (CFU's) per square centimeter. • d) Also on sampling day 0, 102 total of the remaining 110 carcasses from each treatment (all bloating and oddly processed birds were removed) were “whole bird” washed by the sampling procedure described in Example 3. Salmonella detection were noted and reported as number of positive salmonella colonies per 51 birds and % of total.

## CC1(C)C(=O)N(Br)C(=O)N1Br [DBDMH, 1,3-dibromo-5,5-dimethylhydantoin]
5 ppm, control 32/51
  Salmonella Positive Samples (Number per 51): 7/51
5 ppm, control 62.74%
  Salmonella Positive Samples (% of total): 13.73%
10 ppm
  Salmonella Positive Samples (% of total): 7.84%
  Salmonella Positive Samples (Number per 51): 4/51
15 ppm
  Salmonella Positive Samples (% of total): 3.92%
  Salmonella Positive Samples (Number per 51): 2/51
20 ppm
  Salmonella Positive Samples (% of total): 1.96%
  Salmonella Positive Samples (Number per 51): 1/51
25 ppm
  Salmonella Positive Samples (% of total): 0.00%
  Salmonella Positive Samples (Number per 51): 0/51

— US7767240B2, “Microbiological control in poultry processing” (priority 2001, dated 2010)
